2 compounds from the CheMixHub ionic liquid set can be followed below.

The series in a line: xn = mol fraction of the nth substance listed. The settings on record: for electrical conductivity: 298.15 K.

± gives the uncertainty stated by the source.

One may read the viscosity as the resistance of a fluid to flow. A lower viscosity goes with easy flow. For `C1CC[NH2+]C1.O=[N+]([O-])[O-]` + CC1COC(=O)O1, the viscosity reads like this: (283.15 K, 100 kPa, x2 = 0.38) 23 mPa·s; (313.15 K, 100 kPa, x2 = 0) 21 mPa·s; (323.15 K, 100 kPa, x2 = 0.5) 6.1 mPa·s; (333.15 K, 100 kPa, x2 = 0.7) 3.1 mPa·s; (333.15 K, 100 kPa, x2 = 0.78) 2.6 mPa·s; (343.15 K, 100 kPa, x2 = 0.38) 5.2 mPa·s. Besides, the viscosity is reported as 3.4 mPa·s (343.15 K, 100 kPa, x2 = 0.6); 2.7 mPa·s (343.15 K, 100 kPa, x2 = 0.7); 9.3 mPa·s (353.15 K, 100 kPa, x2 = 0); 2.9 mPa·s (353.15 K, 100 kPa, x2 = 0.6); 2.3 mPa·s (353.15 K, 100 kPa, x2 = 0.7). The electrical conductivity was found to be 0.99 ± 0.15 S/m (100 kPa, x2 = 0.8865) and 0.93 ± 0.15 S/m (100 kPa, x2 = 0.8938).
For the compound `C[NH+](C)C.O=S(=O)([N-]S(=O)(=O)C(F)(F)F)C(F)(F)F` + CC1COC(=O)O1, the electrical conductivity (101 kPa, x1 = 0.0001) is 0.003 ± 0.001 S/m; the electrical conductivity (101 kPa, x1 = 0.0137) was determined as 0.352 ± 0.014 S/m; the electrical conductivity (101 kPa, x2 = 0.6243) was found to be 1.61 ± 0.064 S/m; the electrical conductivity (101 kPa, x2 = 0.7417) is 1.64 ± 0.066 S/m; the electrical conductivity (101 kPa, x2 = 0.8037) was found to be 1.53 ± 0.061 S/m; the electrical conductivity (101 kPa, x2 = 0.979) worked out at 0.476 ± 0.019 S/m.
